#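 Tested at 5 concentrations; 48 h exposure; 96-well plates; endpoints linearly interpolated, else capped at highest concentration. At the GI50, growth is halved. TGI: total growth inhibition.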
# Key:
# Experiment in all cases: NCI anticancer screen, dose series, 48 h
# [1] = test system: MALME-3M melanoma
# [2] = test system: HS 578T breast
# [3] = test system: SF-539 CNS
# [4] = test system: EKVX NSCLC
# [5] = test system: SW-620 colon
# [6] = test system: ACHN renal
# [7] = test system: NCI-H522 lung
# [8] = test system: SNB-19 CNS
# [9] = test system: LOX IMVI melanoma
# [10] = test system: NCI-H460 lung
Compound,TGI [1] [µM],TGI [2] [µM],TGI [3] [µM],TGI [4] [µM],TGI [5] [µM],TGI [6] [µM],TGI [7] [µM],TGI [8] [µM],TGI [9] [µM],TGI [10] [µM],GI50 [4] [µM]
COC(=O)c1ccccc1C1CN=NC12Cc1c(ccc3c1CCC3)C2=O (stereo unspecified),> 100,> 100,> 100,> 100,> 100,> 100,43.7,> 100,60.4,> 100,
CCCCc1ccc(Nc2ncc3ncn(COCCO)c3n2)cc1,68.4,83.7,> 100,88.7,> 100,> 100,> 100,> 100,39.7,57.9,
O=c1[nH]nc(-c2ccccc2)n1/N=C/c1ccc([N+](=O)[O-])o1,9.38,> 100,15.7,24,15.2,14.4,6.83,> 47.2,> 100,> 22.6,
CCOC(=O)/C(C(N)=O)=C(\O)C(=O)/C(Br)=C(\O)c1ccccc1,29.2,50.1,36.5,52.8,35.2,33.3,3.7,> 69.1,36.3,56.1,
COC(=O)C1=C(OC(=O)/C(=C/c2ccccc2)c2ccc(OC)cc2)C(C(=O)OC)[C@@]2(O)[C@@H](C(=O)OC)[C@H](C)C[C@@H]1[C@@H]2C(=O)OC (stereo partly specified),> 100,99.3,> 100,> 100,> 100,> 100,> 100,> 100,> 100,> 100,
N#CC(CCN1CCC(Nc2ccccc2)(c2nnnn2C2CCCCC2)CC1)(c1ccccc1)c1ccccc1,> 100,> 100,> 100,> 100,> 100,> 100,> 100,> 100,> 100,> 100,
CC(C)(C)OC(=O)[C@@H]1CCC(=O)N1C1(c2ccccc2)c2ccccc2-c2ccccc21,> 100,> 100,35.7,> 100,87.1,> 100,94,> 100,37.2,> 100,
O=C(O)CSc1ccccc1C(=O)O,> 100,> 100,> 100,> 100,> 100,> 100,> 100,> 100,> 100,38.1,
Cc1ccc(S(=O)(=O)NC(CCC(=O)NNc2ccccc2)C(=O)NNc2ccccc2)cc1 (stereo unspecified),> 100,> 100,> 100,> 100,> 100,> 100,> 100,> 100,> 100,51.6,
CCn1c(=O)c2nc(SC)sc2n(-c2ccc(C)cc2)c1=O,> 81.7,> 87.4,> 100,> 100,> 100,> 100,> 100,> 100,> 100,> 100,71.4
NNC(=O)Nc1nc2ccc(NN)cc2[nH]1,> 100,> 100,28.5,> 100,67.4,> 100,92.6,> 100,> 100,> 100,
Cc1c(C(=O)c2ccc(N)c3ccccc23)c2ccccc2n1CCN1CCOCC1,61.8,48.4,50.8,> 92.2,> 100,> 100,58.4,> 100,59,> 77.1,
CC(C)(C)OC(=O)N/C(C=O)=C\C1CCCCC1,70.4,84.7,87.6,35.4,> 100,86.4,> 100,76.1,29.9,40.6,
CSC(=S)Nc1cc(C)cc(C)n1,> 31.6,> 31.6,> 100,> 31.6,> 31.6,> 31.6,> 31.6,> 31.6,> 31.6,> 31.6,
Nc1ccc(-c2nc3ccccc3s2)cc1Cl,> 100,> 100,> 100,> 100,> 100,> 100,> 100,> 100,> 100,> 100,
C[C@]12CC[C@H]3[C@@H](CCC4=CC(=O)C=C[C@@]43OC(=O)C(F)(F)F)[C@@H]1CCC2=O,> 100,> 100,> 100,> 100,> 100,> 100,> 100,> 100,> 100,> 100,
Cc1ccc(S(=O)(=O)N2C[C@@H]3CC[C@]4(CO[Si](C)(C)C(C)(C)C)N[C@@H](c5ccccc5)[C@H]2[C@H]34)cc1,46.3,> 100,> 100,> 100,> 100,> 100,> 100,> 100,> 100,> 100,

# — PubChem BioAssay (NCI)
